Patent US20100178365A1, “EPICATECHIN DEFICIENT GREEN TEA” (priority 2007, published 2010)

Experiments:
[1] = tested on: KATP channels; assay: inhibition of KATP channels and their ATP/PIP sensitivity; type: biochemical; conditions: for effect on KATP channels: via allosteric interactions with phospholipids of the lipid membrane
Experimental: EGCG and ECG with gallate ester groups inhibited KATP channels via allosteric interactions with phospholipids of the lipid membrane. But the effective EGCG concentration was more than 10 μM. Further, EGCG is the only green tea epicatechin that decreases the sensitivity of ATP and PIP to the KATP channel. By this mechanism, we concluded that EGCG caused decrease in insulin secretion in response to glucose in the β-cell of pancreas. Patients with diabetes or people with a risk factor for diabetes should be careful because the effective concentration of EGCG for this mechanism could be 1-10 μM, which is an achievable concentration when a person drinks 2-8 cups of green tea while fasting.

[2] = intraperitoneal glucose tolerance test after intravenous epicatechin (FIG. 1); type: in vivo; conditions: rats; epicatechin intravenously 30 min before glucose loading 2 g/kg
Experimental: Each epicatechin was injected intravenously 30 min before the glucose loading.

[3] = tested on: cultured adipocytes, myocytes and hepatocytes; assay: glucose uptake ability at cultured cells (FIG. 3); type: cell-based; conditions: for normal glucose uptake mechanism after a meal: hepatocytes, adipocytes and muscle cells
Source text: We can see that basal glucose uptake ability and insulin stimulated glucose uptake ability decreased based on the given EGCG concentration.

[4] = adipocytes, myocytes and hepatocytes, based on the given EGCG concentration

SMILES | effective concentration for KATP channel inhibition [1] | sensitivity of ATP and PIP to the KATP channel [1] | effective concentration for decreasing ATP and PIP sensitivity of the KATP channel ([1]; stated as 'could be') | effect on KATP channels [1] | blood glucose concentration during intraperitoneal glucose tolerance test [2] | blood EGCG level at which the glucose uptake inhibition can occur [3] | basal glucose uptake ability [3, 4] | insulin stimulated glucose uptake ability [3, 4] | normal glucose uptake mechanism after a meal [3]
O=C(O[C@@H]1Cc2c(O)cc(O)cc2O[C@@H]1c1cc(O)c(O)c(O)c1)c1cc(O)c(O)c(O)c1 [EGCG, (−)-epigallocatechin-3-gallate] | more than 10 μM | decreases | 1 to 10 µM | inhibited | High blood glucose level | lower than 10 μM | decreased | decreased | inhibited
O=C(O[C@@H]1Cc2c(O)cc(O)cc2O[C@@H]1c1ccc(O)c(O)c1)c1cc(O)c(O)c(O)c1 [ECG, (−)-epicatechin-3-gallate] | – | – | – | inhibited | High blood glucose level | – | – | – | inhibited
